18 molecules from patent publication US7759392B2, “Pharmaceutical compounds” (Nicox S.A., priority 1999, dated 2010) can be followed below.

Data set [1] concerns gastrointestinal mucosa, liver (GPT), vascular endothelium (blood pressure). As to conditions: rat, in vivo; for Gastroenteropathy % without L-NAME: 4 weeks. On the procedure: The endothelial dysfunction is evaluated by determining the damage to the gastrointestinal mucosa, the hepatic damage and blood hypertension induced by administration of L-NAME.
The animals (rats) are divided in groups as herein below shown. The group receiving L-NAME is treated for 4 weeks with said compound dissolved at a concentration of 400 mg/liter in drinking water. The following groups are constituted (No. 10 animals for group):
• 1° group: only carrier (aqueous suspension 1% w/v of carboxymethylcellulose, dose: 5 ml/Kg when the drug is administered by os, physiologic solution when administered parenterally), • 2° group: carrier+L-NAME, B) Groups Administered with the Drug: • 3° group: carrier+drug, • 4° group: carrier+drug+L-NAME.
The administration routes are those known for the drug, and can be the oral or subcutaneous, intraperitoneal, intravenous or intramuscular route. […] The drug is administered once a day for 4 weeks.
At the end of the four weeks treatment access to water is prevented and after 24 hours the animals are sacrificed.
One hour before the sacrifice blood-pressure is determined, and a blood pressure increase is taken as an evaluation of the damage to vascular endothelium. […] The hepatic damage is determined by evaluation of the glutamic-pyruvic transaminase (GPT increase) after sacrifice.
Test 3—experimental in vivo model with N^w-nitro-L-arginine-methyl ester (L-NAME): gastric tolerability (gastrointestinal damage incidence), hepatic (GPT dosage, glutamic-pyruvic transaminase) and cardiovascular (blood pressure) of some drugs screened as precursors of the compounds of the invention.
The endothelial dysfunction is evaluated by determining the damage induced by L-NAME administration to the gastrointestinal mucosa, the hepatic damage (GPT increase), and the vascular endothelium or cardiovascular damage as blood hypertension.
The animals (rats, average weight 200 g) are divided in groups as herein below described. The group receiving L-NAME is treated for 4 weeks with said compound dissolved at the concentration of 400 mg/liter in drinking water. The following groups (No. 10 animals for group) are constituted:
• 1° group: treatment: only carrier (aqueous suspension 1% w/v of carboxymethylcellulose, dose: 5 ml/Kg when the drug is administered by os, physiologic solution when by parenteral route), • 2° group: treatment: carrier+L-NAME, B) Groups Treated with the Drug: • 3° group: treatment: carrier+drug, • 4° group: treatment: carrier+drug+L-NAME.
Each drug is administered once a day for 4 weeks.
The maximum tolerated dose of the drug being administered to the animals is determined by evaluating, in a separate dose scaling up experiment on untreated animals, the appearance in the animals of symptoms such as enteropathy, diarrhoea, depression, tremor, sedation.
At the end of the four weeks access to water is prevented and after 24 hours the animals are sacrificed.
One hour before the sacrifice blood pressure is determined and a blood pressure increase is taken as an indication of a damage being occurred to vascular endothelium.
The hepatic damage is determined by evaluation after the sacrifice of the glutamic-pyruvic transaminase (GPT increase).
The % gastric lesions have been determined as in Test 1.

For data set [2], the system named is gastrointestinal mucosa. As to conditions: rats; for Gastro-enteropathy (% incidence) without NEM: maximum tolerated dose. On the procedure:
The animals (rats) are distributed in the following groups (no. 10 animals for group):
• 1° group: treatment: only carrier (aqueous suspension 1% w/v of carboxymethylcellulose, dose: 5 ml/Kg when the drug is administered by os, or a physiologic solution when parenterally administered, i.e. by subcutaneous, intraperitoneal, intravenous or intermuscular route), • 2° group: treatment: carrier as above defined+NEM, B) Groups Treated with the Drug: • group I: treatment: carrier+drug, • group II: treatment: carrier+drug+NEM.
The administration routes are those known for the drug, and can be the oral or subcutaneous, intraperitoneal, intravenous or intramuscular route.
The animals are sacrificed after 24 hours and then one proceeds to the evaluation of the damage to the gastrointestinal mucosa.
Test 1—experimental model in vivo with N-ethylmaleimide (NEM): study of the gastric tolerability of some drugs screened as precursors of the compounds of the invention.
The animals (rats, weight about 200 g) are distributed in the following groups (No. 10 animals for group):
• 1° group: treatment: only carrier (aqueous suspension 1% w/v of carboxymethylcellulose, dose: 5 ml/Kg when the drug is administered by os, physiologic solution when by parenteral route), • 2° group: treatment: carrier+NEM, B) Groups Administered with Each Drug: • group I: treatment: carrier+drug, • group II: treatment: carrier+drug+NEM.
The drug is administered one hour later, in suspension in the carrier. Animals are sacrificed after 24 hours and evaluation of the damage to the gastrointestinal mucosa is made by counting the number of rats, inside each group, with lesions to the stomach at a visual inspection. The total number of said rats is then divided by the total number of rats of the group and multiplied by 100.

Data set [3] relates to human endothelial cells of the umbilical vein. The experiment in a line: Test 2 (CIP): apoptosis (DNA fragmentation) induced by cumene hydroperoxide in endothelial cells. As to conditions: drug 10^-4 M, CIP 5 mM; for Apoptosis % with respect to the controls treated only with CIP / activity at 100 µM: one hour; for activity at 100 µM: Homo sapiens, Endothelial cell, 1 h, read-out: Apoptosis % with respect to the controls treated only with CIP. Format: cell-based. The procedure:
Test 2 (CIP): Protection parameter of endothelial cell against the oxidative stress induced by cumene hydroperoxide (CIP).
Human endothelial cells of the umbilical vein are prepared according to an usual standard procedure. Fresh umbilical veins are filled with a 0.1% by weight collagenase solution and incubated at 37° C. for 5 minutes.
The cells are collected from the perfusate by centrifugation and harvested in culture flasks T-75, pretreated with human fibronectin. The cells are then harvested in the same medium, further added with 10 ng/ml of bovine hypothalamic growth factor. When the cells of the primary cell culture (i.e. that directly obtained from ex-vivo) form a single layer of confluent cells (about 8,000,000 cells/flask), the culture is stopped and the layers washed and trypsinized. The cellular suspensions are transferred into the wells of a cell culture plate having 24 wells, half of which is then additioned with the same culture medium containing the drug at a 10^−4M concentration, and harvested in a thermostat at 37° C. at a constant moisture. Only the cells coming from said first sub-cultures are used for the experiments with cumene hydroperoxide (CIP).
Before starting the test, the cellular culture medium is removed and the cellular layers are carefully washed with a physiologic solution at a temperature of 37° C. The wells of the culture plate are then incubated for one hour with CIP at a 5 mM concentration in the culture medium. […] 5 replicates for each sample are carried out.
Human endothelial cells of the umbilical vein are prepared according to a standard method. Fresh umbilical veins are filled with a collagenase solution 0.1% by weight and incubated at 37° C. for 5 minutes.
The cells are collected from the perfusate by centrifugation at 800 rpm and harvested in culture flasks T-75, pretreated with human fibronectin. Cells are then harvested in the same medium, added with bovine hypothalamic growth factor (100 ng/ml). When the cells of the primary cell culture (the cells directly removed from ex-vivo umbilical vein) form a single layer of confluent cells (about 8,000,000 cells/flask), harvesting is stopped and the layers are washed and trypsinized. The cellular suspensions are transferred into wells of a culture plate having 24 wells, half of said wells being added with the same culture medium containing the drug at a 10^−4M concentration, and harvested in a thermostat at 37° C. at a constant moisture (90%), CO2=5%. When the drug is not soluble in the culture medium, it is formerly dissolved in a small amount of dimethylsulphoxide. The maximum amount of dimethylsulphoxide which can be added to the culture medium is 0.5%. Only the cells coming from these first subcultures are used for the tests with cumene hydroperoxide (CIP).
Before starting the test, the cellular culture medium is removed and the cellular layers are carefully washed with a standard physiologic solution buffered with phosphate 0.1 M pH 7.0, at the temperature of 37° C. The content of each well is then incubated for one hour with a CIP suspension in the culture medium at a 5 mM concentration. Evaluation of the cellular damage (apoptosis) is carried out by determining the percent variation of the DNA fragmentation in the cultures containing the drug+CIP with respect to the controls treated with CIP only. […] The fluorescence of each sample was determined on 5 replicates. Statistic evaluation has been made with t Student test (p<0.01).

Data set [4] relates to gastrointestinal mucosa. As to conditions: male, Wistar, rat, in vivo, 6 h. The procedure:
Gastric lesions induced by administration of the compounds of the invention in the confront of the corresponding drug precursor.
The animals have been sacrificed 6 hours after the administration. The gastrointestinal mucosa has been removed and inspected. The incidence of the gastrointestinal damage has been evaluated as described in experiment F1.

Entries after “also recorded” stand apart in the source; their conditions may differ.

Take `CCCCC(C)(O)C/C=C/[C@H]1[C@H](O)CC(=O)[C@@H]1CCCCCCC(=O)OC` (mixture of isomers) [Misoprostol]: in data set [1], the “Blood pressure % without L-NAME” value is 100%, the “GPT % without L-NAME” value was 100% and the “Gastroenteropathy % without L-NAME” value is on record as 0%. Besides, the “Gastro-enteropathy (% incidence) without NEM” value in the data set with gastrointestinal mucosa [2] (24 hours) came to 0%.

`Nc1nc2c(ncn2COCCO)c(=O)[nH]1` [Acyclovir, aciclovir]: in data set [3], the “inhibition of apoptosis induced by CIP (in words, p<0.01)” value (shortened to “inhibition … (in words, p<0.01)”) was “do not significantly inhibit apoptosis” and the “Apoptosis % with respect to the controls treated only with CIP” value (“Apoptosis %” for short) was determined as 95%.

`Nc1c(Br)cc(Br)cc1CN[C@H]1CC[C@H](O)CC1` [Ambroxol, ambroxol]: the “inhibition … (in words, p<0.01)” value in data set [3] is reported as “inhibit apoptosis”. The molecule also yielded a Gastropathy % incidence in the data set on gastrointestinal mucosa [4] of 60%. Also, in the data set on gastrointestinal mucosa [2] (NEM 25 mg/kg s.c. one hour before drug, 24 hours), the “Gastro-enteropathy (% incidence) with NEM” value amounted to 80%. Besides, the “gastrointestinal damages / gastric lesions in rats treated with NEM + drug (in words)” value in the data set with gastrointestinal mucosa [2] (NEM 25 mg/kg s.c., drug at maximum tolerated dose) is given as “showed gastric lesions”. The “Gastro-enteropathy (% incidence) without NEM” value in the data set on gastrointestinal mucosa [2] (24 hours) is reported as 0%.

For the molecule `O=C(O)COCCN1CCN(C(c2ccccc2)c2ccc(Cl)cc2)CC1` (stereo not drawn) [Cetirizine, cetirizine], in data set [3], the “inhibition … (in words, p<0.01)” value is “do not significantly inhibit apoptosis”.

Turning to `COC(=O)[C@H](c1ccccc1Cl)N1CCc2sccc2C1` [Clopidogrel], in data set [3], the “inhibition … (in words, p<0.01)” value is “do not significantly inhibit apoptosis” and the “Apoptosis %” value amounted to 110%.

Molecule `O=C(O)Cc1ccccc1Nc1c(Cl)cccc1Cl` [Diclofenac, diclofenac] came in with a Gastropathy % incidence with gastrointestinal mucosa [4] of 70%.

With `COc1cccc2c1C(=O)c1c(O)c3c(c(O)c1C2=O)C[C@@](O)(C(=O)CO)C[C@@H]3O[C@H]1C[C@H](N)[C@H](O)[C@H](C)O1` [Doxorubicin, doxorubicin], the activity at 100 µM in data set [3] came to 94%. Further, in data set [1], the “Blood pressure % without L-NAME” value is 120%, the “GPT % without L-NAME” value is given as 195% and the “Gastroenteropathy % without L-NAME” value worked out at 30%.

In the data set on gastrointestinal mucosa [4], `Nc1c(Br)cc(Br)cc1CN[C@H]1CC[C@H](OC(=O)CCCO[N+](=O)[O-])CC1` [Example 3, 4-(nitroxy)butyric acid 4-[(2-amino-3,5-dibromophenyl)methylamino] trans cyclohexyl ester] registered a Gastropathy % incidence of 10%.

As to `O=C(CCCO[N+](=O)[O-])NCCCC(O)(P(=O)(O)O)P(=O)(O)O` [Example 4, [4-[4-(nitroxy)butyroyl]amino-1-hydroxybutylidene]biphosphonic acid], the Gastropathy % incidence with gastrointestinal mucosa [4] was found to be 10%.

As to `O=C(CCCO[N+](=O)[O-])Nc1c2c(nc3ccccc13)CCCC2` [Example 11], in the data set with gastrointestinal mucosa [4], the Gastropathy % incidence worked out at 20%.

For the molecule `COc1ccc2c(c1)c(CC(=O)O)c(C)n2C(=O)c1ccc(Cl)cc1` [Indomethacin], the “inhibition … (in words, p<0.01)” value is reported as “not significantly different with respect to that of the controls” in data set [3] and “do not significantly inhibit apoptosis” in data set [3] (listed as indomethacin). Further, the “Gastro-enteropathy (% incidence) without NEM” value in the data set with gastrointestinal mucosa [2] (24 hours) is given as 0%.

Turning to `Nc1ccc(O)c(C(=O)O)c1` [Mesalamine], in data set [3], the “inhibition … (in words, p<0.01)” value is “inhibit apoptosis; also recorded: inhibits the apoptosis induced by CIP”. For the same molecule, the “Gastro-enteropathy (% incidence) without NEM” value in the data set with gastrointestinal mucosa [2] (24 hours) came to 0%.

With `NC(=O)c1cccnc1` [Nicotinamide], in data set [3], the “inhibition … (in words, p<0.01)” value is “do not significantly inhibit apoptosis”.

Turning to `COc1ccc2[nH]c([S+]([O-])Cc3ncc(C)c(OC)c3C)nc2c1` (stereo not drawn) [Omeprazol], the “inhibition … (in words, p<0.01)” value in data set [3] is reported as “do not significantly inhibit apoptosis”. Also, in data set [1], the “Blood pressure % without L-NAME” value was 100%, the “GPT % without L-NAME” value is 100% and the “Gastroenteropathy % without L-NAME” value is given as 0%. The “Gastro-enteropathy (% incidence) without NEM” value in the data set with gastrointestinal mucosa [2] (24 hours) is recorded as 0%.

Regarding `CCC(C)(C)C(=O)O[C@H]1C[C@@H](C)C=C2C=C[C@H](C)[C@H](CCC3CC(O)CC(=O)O3)[C@H]21` (stereo partly drawn) [Simvastatin, simvastatine], the activity at 100 µM in data set [3] was 72%.

`CC1(C)S[C@@H]2[C@H](NC(=O)[C@H](N)c3ccccc3)C(=O)N2[C@H]1C(=O)O` [ampicilline]: in data set [3], the “inhibition … (in words, p<0.01)” value was “do not significantly inhibit apoptosis”.

On to enalapril, for which, in data set [3], the “inhibition … (in words, p<0.01)” value was “do not significantly inhibit apoptosis” and the “Apoptosis %” value turned out to be 80%.

In the case of salbutamol, in data set [3], the “inhibition … (in words, p<0.01)” value is “do not significantly inhibit apoptosis” and the “Apoptosis %” value is on record as 90%.
